According to PMC10922802 (Journal of the American Chemical Society, 2023):
Like-named read-outs stand apart in the source and are kept apart here. One block for each molecule: values may come before it.

What was measured:
Format in all cases: biochemical
PglC (Cj) [1] = target: T1, PglC (Cj) (Campylobacter jejuni, UniProt Q0P9D0); test: PGT activity assay with UDP-diNAcBac, percent inhibition at […]; conditions: read-out: % inhibition at 100 μM
T1 sequence (Q0P9D0 1-200): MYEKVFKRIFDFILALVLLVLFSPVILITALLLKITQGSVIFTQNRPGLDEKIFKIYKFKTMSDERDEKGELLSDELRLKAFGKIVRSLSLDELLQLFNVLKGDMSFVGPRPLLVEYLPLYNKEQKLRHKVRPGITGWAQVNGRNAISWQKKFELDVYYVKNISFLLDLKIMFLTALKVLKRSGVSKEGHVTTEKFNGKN

WecA (Tm) = target: T2, WecA (Tm) (Thermotoga maritima, UniProt Q9X1N5); test: PGT activity assay
T2 sequence (Q9X1N5 1-291): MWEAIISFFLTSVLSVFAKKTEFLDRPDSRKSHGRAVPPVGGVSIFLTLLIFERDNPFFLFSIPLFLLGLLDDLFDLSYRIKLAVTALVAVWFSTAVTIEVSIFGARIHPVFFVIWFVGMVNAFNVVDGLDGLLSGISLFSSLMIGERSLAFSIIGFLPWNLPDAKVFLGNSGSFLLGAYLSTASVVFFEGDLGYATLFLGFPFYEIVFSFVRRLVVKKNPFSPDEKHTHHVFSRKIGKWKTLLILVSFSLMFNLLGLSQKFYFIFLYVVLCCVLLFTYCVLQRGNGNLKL

PglC (Cj) [2] = target: T1, PglC (Cj)
PglC (Cj) [3] = target: T1, PglC (Cj); test: PGT activity assay with UDP-diNAcBac, percent inhibition at […]; conditions: read-out: % inhibition at 100 μM; remark: listed apart in the source

inhibition at 100 µM (PglC (Cj) [1]): 52 ± 10%
SMILES: CC(=O)N[C@H]1[C@@H](OP(=O)(O)[C@@H](F)P(=O)(O)OC[C@H]2O[C@@H](n3ccc(=O)[nH]c3=O)[C@H](O)[C@@H]2O)O[C@H](CO)[C@@H](O)[C@@H]1O [compound 7, α-GlcNAc-(S)-CHF]

IC50 (WecA (Tm)): 41 ± 10 µM
inhibition at 100 µM (PglC (Cj) [1]): 28 ± 12%
SMILES: CC(=O)N[C@H]1[C@@H](OP(=O)(O)CP(=O)(O)OC[C@H]2O[C@@H](n3ccc(=O)[nH]c3=O)[C@H](O)[C@@H]2O)O[C@H](CO)[C@@H](O)[C@@H]1O [compound 11, α-GlcNAc-CH2]

IC50 (PglC (Cj) [2]): 32 ± 5.3 µM
SMILES: CC(=O)N[C@H]1[C@@H](OP(=O)(O)C(F)(F)P(=O)(O)OC[C@H]2O[C@@H](n3ccc(=O)[nH]c3=O)[C@H](O)[C@@H]2O)O[C@H](CO)[C@@H](O)[C@@H]1O [compound 4, α-GlcNAc-CF2]

inhibition at 100 µM (PglC (Cj) [3]): 33 ± 6%
SMILES: O=c1ccn([C@@H]2O[C@H](COP(=O)(O)C(F)(F)P(=O)(O)O)[C@@H](O)[C@H]2O)c(=O)[nH]1 [compound 3, H-CF2]
